The target of this test is T1, KshB (Mycolicibacterium neoaurum, UniProt D2Y640).
T1 construct: gene kstR; pMA5-kshB primer R1 carries no His-tag
As to the kind of experiment: dichlorophenolindophenol reduction assay. In kind it is biochemical. The conditions noted are these: 0.25 mM NADH, 0.1 mM 2,6-dichlorophenolindophenol, 50 mM Tris-HCl pH 7.0, room temperature; electron donor; data not shown.

T1 sequence (D2Y640 entry or part of it): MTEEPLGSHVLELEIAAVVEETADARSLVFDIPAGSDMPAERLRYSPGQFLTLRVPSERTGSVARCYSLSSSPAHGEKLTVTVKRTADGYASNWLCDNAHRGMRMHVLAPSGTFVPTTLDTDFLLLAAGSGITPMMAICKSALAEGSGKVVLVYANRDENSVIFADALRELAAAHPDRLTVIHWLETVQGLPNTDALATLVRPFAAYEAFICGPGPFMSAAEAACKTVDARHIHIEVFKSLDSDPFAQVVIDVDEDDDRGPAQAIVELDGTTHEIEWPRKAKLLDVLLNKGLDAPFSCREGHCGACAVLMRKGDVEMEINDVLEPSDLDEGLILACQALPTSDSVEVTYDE

Turning to `NC(=O)C1=CN([C@@H]2O[C@H](COP(=O)(O)OP(=O)(O)OC[C@H]3O[C@@H](n4cnc5c(N)ncnc54)[C@H](O)[C@@H]3O)[C@@H](O)[C@H]2O)C=CC1` [NADH], the dichlorophenolindophenol reduction assay result was “accepts electrons from NAD(P)H and transfers it to oxygenase component KshA”.
